Experimental data: patent US20220267478A1, “PEPTIDE-LOADED CARRIER SYSTEMS AND USES THEREOF” (Academia Sinica, priority 2019, published 2022)
In brackets after ≈: the same amount, converted by molar mass. Ends that are not written are not given here.

What was measured:
[1] = Aqueous solubility of peptides; details: for Solubility of unmodified peptide epitope: Table 1; for water solubility (in words) / solubility: water
[2] = from Vasievich et al.; cited from earlier work
JAWSII dendritic cells = assay: Dendritic cell surface marker expression after nanoparticle incubation and LPS stimulation; format: cell-based; details: FIG. 24
Method: FIG. 24 includes bar graphs showing the percentage of JAWSII dendritic cells expressing CD80 (upper left panel), CD86 (upper right panel), MHC I (bottom left panel) and MHC II (bottom right panel) assessed by flow cytometric analysis after the cells were co-cultured with the indicated aspirin/peptide formulations.
Dendritic cells were incubated with nanoparticles co-encapsulating adaptor modified OTII peptide and aspirin or adaptor-modified peptides only for 6 h, and then were stimulated with low dose of lipopolysaccharide (“LPS”). Dendritic cell phenotypes were observed 24 h later. See the experimental scheme in FIG. 23.

CD8 T cells = assay: Trp2-specific CD8 T cell response in splenocytes of vaccinated mice (intracellular IFN-γ staining, flow cytometry); format: in vivo, C57BL/6 mice; details: peptide in nanoparticles with cdGMP; FIG. 10
Method: The immunogenicity of modified Trp2 peptides was tested by encapsulating them in the aqueous core of hollow thin-shell nanoparticles together with a fixed amount of stimulator of interferon genes (STING) agonist cyclic di-GMP (cdGMP) and injecting them into mice.
The modified Trp2 peptides were as follows: (i) D4-Trp2-D5, (ii) Trp2-D5, (iii) D5-Trp2, (iv) D2G3-Trp2-G3D2, (v) Trp2-G3D3, and (vi) D3G3-Trp2. As Trp2 itself cannot be incorporated into the aqueous core due to its hydrophobicity, a longer Trp2 peptide, namely, Trp2168-195 was encapsulated as a positive control.
Nanoparticles each containing an equivalent dose of one of the Trp2 peptides and cdGMP were prepared as described in Example 1 above and administered to C57BL/6 mice on day 0 and day 21 by subcutaneous injection at the base of the tail. On day 28, splenocytes of the vaccinated mice were isolated and examined for Trp2-specific CD8 T cell immune responses. Briefly, splenocytes from each mouse were challenged with Trp2 peptide and expression of IFN-γ in CD8 T cells was measured by intracellular cytokine staining and flow cytometry.

## TAYRYHLL [Trp1m, TAYRYHLL]
[1]
  Solubility of unmodified peptide epitope: hydrophilic

## KVPRNQDWL [gp100, KVPRNQDWL]
[1]
  Solubility of unmodified peptide epitope: hydrophilic

## SIIVFNLL [Dpagt1, SIIVFNLL]
[1]
  Solubility of unmodified peptide epitope: hydrophobic
  water solubility (in words): poorly soluble

## CC(C)C[C@H](NC(=O)[C@H](Cc1c[nH]c2ccccc12)NC(=O)[C@@H](NC(=O)[C@H](Cc1ccccc1)NC(=O)[C@H](Cc1ccccc1)NC(=O)[C@H](CC(=O)O)NC(=O)[C@H](Cc1ccc(O)cc1)NC(=O)[C@@H](NC(=O)[C@@H](N)CO)C(C)C)C(C)C)C(=O)O [Trp2, SVYDFFVWL]
[2]
  maximum solubility in water: 0.06 mM

## lipopolysaccharide [LPS]
JAWSII dendritic cells
  expression of CD80, CD86, MHC I, and MHC II compared to vehicle control: increased expression

## Trp2168-195: longer Trp2 peptide containing sequences flanking the target epitope 180-188; positive control
CD8 T cells
  CD8+ T cell response, fold weaker compared to D3G3-Trp2: ~20 fold

## FQDAYNAAGGHNAVF [Mycobacterium tuberculosis p25, FQDAYNAAGGHNAVF]
[1]
  Solubility of unmodified peptide epitope: hydrophobic

## CC[C@H](C)[C@H](NC(=O)[C@@H](NC(=O)[C@@H](N)CO)[C@@H](C)CC)C(=O)N[C@@H](CC(N)=O)C(=O)N[C@@H](Cc1ccccc1)C(=O)N[C@@H](CCC(=O)O)C(=O)N[C@@H](CCCCN)C(=O)N[C@@H](CC(C)C)C(=O)O [OVA257-264, SIINFEKL]
[1]
  Solubility of unmodified peptide epitope: hydrophilic
  solubility: 2 mM (≈ 1930 µg/mL)

## DDDGGGSVYDFFVWL [D3G3-Trp2, DDDGGGSVYDFFVWL]
[1]; H2O
  solubility fold higher than the Trp2 peptide: over 500 fold
[1]
  solubility: > 30 mM

## ASMTNMELM [Adpgk, ASMTNMELM]
[1]
  Solubility of unmodified peptide epitope: hydrophobic
  water solubility (in words): poorly soluble

## QVYSLIRPNENPAHK [influenza virus nucleoprotein NP311, QVYSLIRPNENPAHK]
[1]
  Solubility of unmodified peptide epitope: hydrophilic

## AQLANDVVL [Resp1, AQLANDVVL]
[1]
  Solubility of unmodified peptide epitope: hydrophobic
  water solubility (in words): poorly soluble

## ISQAVHAAHAEINEAGR [OT-II, ISQAVHAAHAEINEAGR]
[1]
  Solubility of unmodified peptide epitope: hydrophilic

## DDDGGGSIINFEKL [D3G3-OVA]
[1]
  solubility: 50 mM
